Measured values published in ChEMBL document CHEMBL5104182, “Design and Synthesis of a 2-Amino-pyridine Derivative as a Potent CDK8 Inhibitor for Anti-colorectal Cancer Therapy” (J Med Chem, 2022).

Columns and labels:
[1] = tested on: CT26; test: Antiproliferative activity against […] cells assessed as cell viability incubated for 48 hrs by MTT assay; format: functional; details: Mus musculus
[2] = tested on: SW480; test: Antiproliferative activity against human SW480 cells assessed as cell viability incubated for 48 hrs by MTT assay; format: functional
[3] = Cytotoxicity against human GES1 cells assessed as cell viability incubated for 48 hrs by MTT assay; format: toxicity, cell-based
[4] = tested on: HCT-116; test: Antiproliferative activity against human HCT-116 cells assessed as cell viability incubated for 48 hrs by MTT assay; format: functional
[5] = tested on: HT-29; test: Antiproliferative activity against human HT-29 cells assessed as cell viability incubated for 48 hrs by MTT assay; format: functional
[6] = molecular target: T1, Cyclin-dependent kinase 8 (Homo sapiens, UniProt P49336); test: Inhibition of CDK8 (unknown origin) assessed as inhibition rate
[7] = molecular target: T1, Cyclin-dependent kinase 8; details: dose 200.0 nM

T1 sequence (P49336 whole entry): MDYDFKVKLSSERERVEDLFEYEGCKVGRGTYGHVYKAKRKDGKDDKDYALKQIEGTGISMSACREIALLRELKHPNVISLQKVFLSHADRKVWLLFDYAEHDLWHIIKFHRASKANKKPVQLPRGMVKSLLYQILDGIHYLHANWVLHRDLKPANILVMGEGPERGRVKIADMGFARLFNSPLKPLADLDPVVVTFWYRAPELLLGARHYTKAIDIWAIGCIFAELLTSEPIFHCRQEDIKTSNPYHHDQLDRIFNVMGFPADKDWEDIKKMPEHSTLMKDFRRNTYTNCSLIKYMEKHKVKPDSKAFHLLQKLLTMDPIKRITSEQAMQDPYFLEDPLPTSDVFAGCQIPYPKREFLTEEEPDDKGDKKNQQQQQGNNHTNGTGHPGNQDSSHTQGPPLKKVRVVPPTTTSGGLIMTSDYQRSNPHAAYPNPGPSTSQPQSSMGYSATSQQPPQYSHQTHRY

| GI50 [1] | GI50 [2] | GI50 [4] | GI50 [5] | IC50 [6] | inhibition [7] | Compound | GI50 at 48 h [3] |
| --- | --- | --- | --- | --- | --- | --- | --- |
| > 100 µM | > 100 µM | > 100 µM | 19 µM | – | – | Cc1ccc(NC(=O)Nc2cccc(Oc3ccc(N)nc3)c2)cc1 | > 100 µM |
| 66.7 µM | 45.2 µM | 70.9 µM | 49.9 µM | – | – | Nc1ccc(Oc2ccc(NC(=O)Nc3cccc(F)c3)cc2)cn1 | > 100 µM |
| 10.3 µM | 8.2 µM | 43.6 µM | 16.7 µM | – | – | Nc1ccc(Sc2ccc(NC(=O)Nc3cccc(C(F)(F)F)c3)cc2)cn1 | > 100 µM |
| 8.7 µM | 2.5 µM | 8 µM | 1.1 µM | – | – | O=C(Nc1cccc(Oc2cnc3[nH]ccc3c2)c1)Nc1cccc(C(F)(F)F)c1 | 40.7 µM |
| 5.3 µM | 1.9 µM | – | 2.1 µM | – | – | O=C(Nc1ccc(Oc2cnc3[nH]ccc3c2)cc1)Nc1cccc(C(F)(F)F)c1 | – |
| 55.2 µM | 30.1 µM | > 100 µM | 39.8 µM | – | – | Cc1ccc(NC(=O)Nc2ccc(Oc3cnc4[nH]ccc4c3)cc2)cc1C(F)(F)F | 24 µM |
| > 100 µM | 100 µM | 53.2 µM | 100 µM | – | – | O=C(Nc1cccc(Oc2cnc3[nH]ccc3c2)c1)Nc1ccc(Cl)c(C(F)(F)F)c1 | – |
| 25.5 µM | 12.8 µM | 7.4 µM | 7.7 µM | – | – | Nc1ccc(Oc2cccc(NC(=O)Nc3ccc(F)c(C(F)(F)F)c3)c2)cn1 | 39.1 µM |
| 11.3 µM | 10.4 µM | 9.6 µM | 7.8 µM | 0.0385 µM | 79% | Cn1cc(-c2ccc(-c3cncc(Cl)c3N3CCC4(CCNC4=O)CC3)cc2)cn1 | 42.7 µM |
| > 100 µM | > 100 µM | > 100 µM | > 100 µM | – | – | Cc1ccc(NC(=O)Nc2cccc(Oc3ccc(N)nc3)c2)cc1Cl | > 100 µM |
| 88.2 µM | 77.5 µM | 54.6 µM | 18.8 µM | – | – | Nc1ccc(Oc2ccc(NC(=O)Nc3cccc(Cl)c3Cl)cc2)cn1 | > 100 µM |
| 32.4 µM | 29.2 µM | 7.6 µM | 30.3 µM | – | – | Nc1ccc(Oc2cccc(NC(=O)Nc3ccc(Cl)c(Cl)c3)c2)cn1 | > 100 µM |
| 44.5 µM | 29.6 µM | 21.3 µM | 50 µM | – | – | Nc1ccc(Oc2cccc(NC(=O)Nc3cccc(Br)c3)c2)cn1 | > 100 µM |
| > 100 µM | 13.2 µM | 12.5 µM | 8.5 µM | – | – | Nc1ccc(Oc2ccc(NC(=O)Nc3cccc(Cl)c3)cc2)cn1 | 65.5 µM |
| > 100 µM | 66.3 µM | 26.6 µM | 41.5 µM | – | – | Cc1cccc(NC(=O)Nc2cccc(Oc3ccc(N)nc3)c2)c1 | > 100 µM |
| 8.3 µM | 1.4 µM | – | 2.3 µM | – | – | O=C(Nc1ccc(Oc2cnc3[nH]ccc3c2)cc1)Nc1ccc(Cl)c(C(F)(F)F)c1 | – |
| 12.9 µM | 3.9 µM | 15.7 µM | 3.4 µM | – | – | Nc1ccc(Oc2ccc(NC(=O)Nc3ccc(Cl)c(C(F)(F)F)c3)cc2)cn1 | 26.8 µM |
| 23.5 µM | 17.9 µM | 4 µM | 19.1 µM | – | – | Nc1ccc(Oc2cccc(NC(=O)Nc3ccc(F)c(Cl)c3)c2)cn1 | 31.3 µM |
| 5.2 µM | 9.1 µM | 9.5 µM | 8.1 µM | – | – | Nc1ccc(Oc2cccc(NC(=O)Nc3ccc(Cl)c(C(F)(F)F)c3)c2)cn1 | 10.2 µM |
| 35.6 µM | 14 µM | > 100 µM | > 100 µM | – | – | Nc1ccc(Oc2ccc(NC(=O)Nc3cccc(Br)c3)cc2)cn1 | > 100 µM |
| 52.3 µM | 10.9 µM | > 100 µM | > 100 µM | – | – | Nc1ccc(Oc2cccc(NC(=O)Nc3ccc(F)cc3)c2)cn1 | > 100 µM |
| 83.1 µM | 43 µM | 34.4 µM | 27.5 µM | – | – | Nc1ccc(Oc2cccc(NC(=O)Nc3ccccc3F)c2)cn1 | 43.6 µM |
| > 100 µM | 12.5 µM | 37.4 µM | 59.4 µM | – | – | Cc1cccc(NC(=O)Nc2ccc(Oc3ccc(N)nc3)cc2)c1 | > 100 µM |
| 20.9 µM | 30.7 µM | 90.1 µM | 41.1 µM | – | – | O=C(Nc1ccc(Oc2cnc3[nH]ccc3c2)cc1)Nc1cccc(Cl)c1 | – |
| 7.4 µM | 15.5 µM | 11.2 µM | 8.5 µM | – | – | Nc1ccc(Oc2ccc(NC(=O)Nc3ccc(F)c(C(F)(F)F)c3)cc2)cn1 | 52.5 µM |
| 30.2 µM | 14.7 µM | 19.8 µM | 25.6 µM | – | – | CNC(=O)c1cc(Oc2ccc(NC(=O)Nc3ccc(Cl)c(C(F)(F)F)c3)cc2)ccn1 [SORAFENIB] | 28.9 µM |
| 42.7 µM | 18.4 µM | 1.8 µM | 8.6 µM | – | – | CC(=O)Nc1ccc(Oc2ccc(NC(=O)Nc3cccc(C(F)(F)F)c3)cc2)cn1 | 28.2 µM |
| > 100 µM | 22.5 µM | 20.4 µM | 9 µM | – | – | COc1cccc(NC(=O)Nc2ccc(Oc3ccc(N)nc3)cc2)c1 | 43.2 µM |
| 70.4 µM | 44.2 µM | 29.7 µM | 36.1 µM | – | – | Nc1ccc(Oc2cccc(NC(=O)Nc3cccc(Cl)c3)c2)cn1 | > 100 µM |
| 6.9 µM | 10.4 µM | 1.7 µM | 2.5 µM | – | – | Nc1ccc(Oc2cccc(NC(=O)Nc3cccc(C(F)(F)F)c3)c2)cn1 | > 100 µM |
